The values below come from patent US11129801B2 (SigmaThera SAS, priority 2016, dated 2021).

What all share (type): in vivo
One test relates to GFAP. Nature of the test: ELISA of cortical GFAP, Aβ25-35 mouse model. The note with it: Experiment 2, post-treatment, 1 mg/kg. Here is the method: (§1) In Experiment 2, twelve mice per experimental group were administered Sc.Aβ or Aβ25-35-amyloid peptide on day 0 by i.c.v. injection. […] Animals were tested at day 7 and later.
(§2) For each of Experiments 1-4, on day 7, all animals were tested for the spontaneous alternation performance in the Y-maze test, an index of spatial working memory. On day 8 and 9, the contextual long-term memory of the animals was assessed using the step-through type passive avoidance procedure. On day 9, immediately after the retention session, animals were sacrificed by decapitation and the hippocampus and cortex dissected out. Lipid peroxidation was analyzed in the hippocampus, whereas neuroinflammation, apoptosis, amyloid burden and hyperphosphorylation of tau protein were analyzed in cortex.
(§3) Enzyme-linked immunosorbant assay (ELISA) assays: Contents in GFAP, Caspase 12, Amyloid-beta 1-40, Amyloid-beta 1-42, Total Tau, and pTau on Ser199 were analyzed by using commercial ELISA assay kit. • GFAP: Supplier: USCNK #Ref: SEA068Mu • Total Tau: Supplier: Novex #Ref: KMB7011 • pTau (S199): Supplier: Novex #Ref: KMB7041 • Amyloid beta 1-40: Supplier: Novex #Ref: KMB3481 • Amyloid beta 1-42: Supplier: Novex #Ref: KMB3441 • Caspase-12: Supplier: LSBio #Ref: LS-F11023 • BAX: Supplier: Euromedex#Ref: SEB343Mu • BCL2: Supplier: Euromedex #Ref: SEA778Mu […]

Test [1] has as its system Aβ25-35 mouse model of Alzheimer's disease. Description: Spontaneous alternation in the Y-maze, Aβ25-35 mouse model. On the procedure:
(§4) The compound efficacy was evaluated 7 days after the peptide administration on the attenuation of the Aβ25-35-induced learning deficits (spatial working memory using the spontaneous alternation in the Y-maze test, and contextual long-term memory using the passive avoidance test).
(§5) The mice were tested 7 days post injection or at the indicated time points.
as §1
The synergy/additivity/antagonism was evaluated by calculating the combination index. […] Animals were then tested at day 7 and later.
Animals were tested at day 7 and later.
as §2
(§6) The homogeneous oligomeric preparation of Aβ25-35 peptide was performed according to the AMYLGEN's own procedure. Each mouse was anesthetized with isoflurane 2.5% and injected i.c.v. with Aβ25-35 peptide (9 nmol/mouse) or Sc.Aβ peptide (9 nmol/mouse), in a final volume of 3 μl/mouse, according to the previously described method (Maurice T, et al. (1996). Brain Res. 706(2): 181-193, Maurice T, et al. (1998) Neuroscience 83(2): 413-428, Meunier J, et al. (2006) British J. Pharmacol. 149(8): 998-1012, Villard V, et al. (2009) Neuropsychopharmacology 34(6): 1552-1566, Villard V, et al. (2011) J. Pharmacol. Sci. 115(3): 279-292).
Animals: Male Swiss mice, 6 weeks old and weighing 30-35 g, from JANVIER (Saint Berthevin, France), were kept for housing and experiments took place within the animal facility building of the University of Montpellier 2 (CECEMA, Office of Veterinary Services agreement #B-34-172-23). Animals were housed in groups with access to food and water ad libitum, except during behavioral experiments. They were kept in a temperature and humidity controlled animal facility on a 12 h/12 h light/dark cycle (lights off at 07:00 pm). Mice were numbered by marking their tail using permanent markers. All animal procedures were conducted in strict adherence to the European Union directive of Sep. 22, 2010 (2010/63/UE). Diagnostic summary reports of JANVIER were annexed to the study report.
Spontaneous alternation performance: Immediate working memory performance was assessed by recording spontaneous alternation behavior during a single session in a Y-maze as described previously (Itoh J, et al. (1993) Eur J Pharmacol 236(3): 341-345; Hiramatsu M and Inoue K (1999) Br J Pharmacol 127(3): 655-660). The Y-maze is made of grey polyvinylchloride. Each arm of the Y-maze was 40 cm long, 3 cm wide, and 13 cm high at the bottom, 10 cm wide at the top, and converging at an equal angle. Each mouse was placed at the end of one arm and allowed to move freely through the maze during an 8 min session. The series of arm entries, including possible returns into the same arm, was checked visually. An alternation was defined as entries into all three arms on consecutive occasions. The number of maximum alternations is therefore the total number of arm entries minus two and the percentage of alternation was calculated as (actual alternations/maximum alternations)×100. Parameters included the percentage of alternation (memory index) and total number of arm entries (exploration index).

The next test has as its system Aβ1-42. Nature of the test: ELISA of cortical Aβ1-42, Aβ25-35 mouse model. Conditions: Experiment 2, post-treatment. Here is the method: as §1, §2, §3
(In general: ELISA stands for enzyme-linked immunosorbent assay.)

Test [2] concerns Aβ25-35 mouse model of Alzheimer's disease. Description: Step-through passive avoidance test, Aβ25-35 mouse model. On the procedure:
as §4, §5, §1
Each of these doses was, by itself, unable to produce any protective effect. The synergy/additivity/antagonism was evaluated by calculating the combination index. […] Animals were then tested at day 7 and later.
as §2, §6
Animals: Male Swiss mice, 6 weeks old and weighing 30-35 g, from JANVIER (Saint Berthevin, France), were kept for housing and experiments took place within the animal facility building of the University of Montpellier 2 (CECEMA, Office of Veterinary Services agreement #B-34-172-23). Animals were housed in groups with access to food and water ad libitum, except during behavioral experiments. They were kept in a temperature and humidity controlled animal facility on a 12 h/12 h light/dark cycle (lights off at 07:00 pm). […]
Passive avoidance test: The passive avoidance task was used to evaluate learning and memory in mice treated with igmesine. […] The step-through latency, that is, the latency spent to enter the dark compartment, and the number of vocalizations was recorded. […]

Test [3] has as its system Tau protein phosphorylated on Serine 199 (pTauS199). Description: ELISA of cortical pTauS199, Aβ25-35 mouse model. The note with it: Experiment 2, post-treatment. On the procedure:
as §1, §2, §3

The mark [4] stands for this setting: Experiment 1, pre-treatment, 0.1, 0.3, 1 mg/kg i.p.
Setting [5] is: Experiment 2, post-treatment day 1 to day 6.

In the case of `CCC(C/C=C/c1ccccc1)(c1ccccc1)N(C)CC1CC1` (single isomer, unassigned; (+)) [igmesine, (+)-(E)-N-(cyclopropylmethyl)-N-methyl-3,6-diphenylhex-5-en-3-amine], the “cortical GFAP elevation” value in the test on GFAP is on record as “fully normalized”. Also, the “prevention of Aβ25-35-induced spontaneous alternation deficits” value is “dose-dependently prevented” in test [1] (Experiment 1, i.p. 20 min before Aβ25-35, 0.1, 0.3, 1 mg/kg) and “prevented the Aβ25-35-induced deficits at the highest doses tested” in test [1] (Experiment 2, post-treatment i.p. day 1 to day 6). In addition, the “highest sub-active dose, spontaneous alternation” value in test [1] (Experiment 3, i.p.) was found to be 0.1 mg/kg. Also, the “cortical Aβ1-42 elevation” value with Aβ1-42 is reported as “fully normalized”. The “prevention of passive avoidance deficits, escape latency” value is reported as “at the highest dose” in test [2] (setting [4]) and “significant prevention at the highest dose tested” in test [2] (setting [5]). Also, the figures for the “prevention of passive avoidance deficits, step-through latency” value in test [2] (setting [4]) and in test [2] (setting [5]) were “significant prevention at the two highest dose tested” and “significant prevention at the highest dose tested”, respectively. Also, the “elevation of cortical pTauS199” value in test [3] was “fully normalized”.
